Test system: Mycobacterium tuberculosis variant bovis
Test: Antimycobacterial activity against Mycobacterium bovis BCG ATCC 35734 assessed as bacterial growth inhibition incubated for 15 days by resazurin based reduction assay
Format: functional
Conditions: BCG ATCC 35734, 360 h, time 15 day

COc1cc([C@](O)(CCN(C)C)[C@@H](c2cc3cc(Br)ccc3nc2OC)c2cccc(OC)c2F)cc(OC)n1 [TBAJ-587]
MIC50: < 6 ng/mL
